Read-outs that look alike come from different tables or passages of the source.
Columns and labels:
OX2 = target: T1, OX2 (Homo sapiens, UniProt O43614); experiment: Measurement of orexin receptor-binding ability ([125I]-OX-A, cell membranes, OX2); design: expressed in transfected cells; host or cells: CHO cells (membrane preparation); conditions: membranes of recombinant CHO cells expressing OX2, 0.2 nM [125I]-OX-A
T1 sequence (O43614 1-444): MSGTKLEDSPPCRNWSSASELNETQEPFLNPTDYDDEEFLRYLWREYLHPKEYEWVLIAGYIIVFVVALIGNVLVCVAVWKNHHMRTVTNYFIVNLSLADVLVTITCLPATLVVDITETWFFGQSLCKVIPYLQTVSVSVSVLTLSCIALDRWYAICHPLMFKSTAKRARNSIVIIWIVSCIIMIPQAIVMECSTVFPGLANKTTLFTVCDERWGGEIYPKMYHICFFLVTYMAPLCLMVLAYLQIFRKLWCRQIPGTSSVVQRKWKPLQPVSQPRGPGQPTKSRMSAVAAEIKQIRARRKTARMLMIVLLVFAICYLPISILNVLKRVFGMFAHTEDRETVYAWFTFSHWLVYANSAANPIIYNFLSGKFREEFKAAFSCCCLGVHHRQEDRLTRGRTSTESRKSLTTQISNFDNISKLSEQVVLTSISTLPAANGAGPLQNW

OX1 = target: T2, OX1 (Homo sapiens, UniProt O43613); experiment: Measurement of orexin receptor-binding ability ([125I]-OX-A, cell membranes, OX1); design: expressed in transfected cells; host or cells: CHO cells (membrane preparation)
T2 sequence (O43613 1-425): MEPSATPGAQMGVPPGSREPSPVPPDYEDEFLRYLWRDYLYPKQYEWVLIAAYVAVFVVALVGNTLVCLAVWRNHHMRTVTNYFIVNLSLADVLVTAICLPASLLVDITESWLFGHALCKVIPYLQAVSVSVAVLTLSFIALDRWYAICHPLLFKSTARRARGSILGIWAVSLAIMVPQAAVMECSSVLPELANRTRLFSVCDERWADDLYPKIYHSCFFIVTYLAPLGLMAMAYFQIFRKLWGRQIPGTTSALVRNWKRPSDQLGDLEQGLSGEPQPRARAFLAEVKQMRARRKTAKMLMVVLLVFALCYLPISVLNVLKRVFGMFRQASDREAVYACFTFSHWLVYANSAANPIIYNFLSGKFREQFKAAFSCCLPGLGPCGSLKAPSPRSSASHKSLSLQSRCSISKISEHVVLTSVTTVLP

[1] = membranes of recombinant CHO cells expressing OX1, 0.2 nM [125I]-OX-A, read-out: OX1 (IC50)

Row | SMILES | IC50 (OX2; OX2 (IC50) nM) | IC50 (OX1) | IC50 (OX2; read-out: OX2 (IC50)) | IC50 (OX1; [1])
1 | COc1cc(F)cc([C@]2(COc3cnc(C)nc3C)C[C@H]2C(=O)Nc2ccc(F)cn2)c1 [Example 254] | 11 nM | 109 nM |  | 
2 | Cc1ncc(OCC2(c3cccnc3)CC2C(=O)Nc2ccc(Cl)cn2)c(C)n1 (centres unmarked) [Example 260, N-(5-chloropyridin-2-yl)-2-{[(2,4-dimethylpyrimidin-5-yl)oxy]methyl}-2-pyridin-3-ylcyclopropanecarboxamide] |  |  | 70 nM | > 2000 nM
3 | Cc1ncc(OCC2(c3ccccc3F)CC2C(=O)Nc2ccc(Cl)cn2)c(C)n1 (centres unmarked) [Example 262] | 51 nM | 85 nM |  | 
4 | Cc1ncc(OCC2(c3cccc(C(F)(F)F)c3)CC2C(=O)Nc2ccc(C#N)cn2)c(C)n1 (centres unmarked) [Example 264] |  |  | 23 nM | 792 nM
5 | Cc1ncc(OCC2(c3cccc(C(F)(F)F)c3)CC2C(=O)Nc2ccc(Cl)cn2)c(C)n1 (centres unmarked) [Example 265] | 10 nM | 43 nM |  | 
6 | Cc1ncc(OC[C@@]2(c3cccc(C(F)(F)F)c3)C[C@H]2C(=O)Nc2ccc(F)cn2)c(C)n1 [Example 266, (1R,2S)-2-{[(2,4-dimethylpyrimidin-5-yl)oxy]methyl}-N-(5-fluoropyridin-2-yl)-2-(3-trifluoromethylphenyl)cyclopropanecarboxamide] | 2.7 nM | 30 nM |  | 
7 | Cc1ncc(OC[C@@]2(c3cccs3)C[C@H]2C(=O)Nc2ccc(Cl)cn2)c(C)n1 [Example 267] |  |  | 64 nM | 118 nM
8 | Cc1ncc(OC[C@@]2(c3cccs3)C[C@H]2C(=O)Nc2ccc(F)cn2)c(C)n1 [Example 268] | 36 nM | 164 nM |  | 
9 | Cc1ncc(OC[C@@]2(c3ccsc3)C[C@H]2C(=O)Nc2ccc(Cl)cn2)c(C)n1 [Example 269] |  |  | 23 nM | 264 nM
10 | Cc1ncc(OC[C@@]2(c3ccsc3)C[C@H]2C(=O)Nc2ccc(F)cn2)c(C)n1 [Example 270] | 58 nM | 264 nM |  | 
11 | Cc1ncc(OCC2(c3cccc(Br)c3)CC2C(=O)Nc2ccc(F)cn2)c(C)n1 (centres unmarked) [Example 271] | 5 nM | 18 nM |  | 
12 | Cc1ncc(OC[C@@]2(c3ccc(Br)cc3)C[C@H]2C(=O)Nc2ccc(Cl)cn2)c(C)n1 [Example 273, (1R,2S)-2-(4-bromophenyl)-N-(5-chloropyridin-2-yl)-2-{[(2,4-dimethylpyrimidin-5-yl)oxy]methyl}cyclopropanecarboxamide] | 10 nM | 69 nM |  | 
13 | Cc1ncc(OC[C@@]2(c3ccc(Br)cc3)C[C@H]2C(=O)Nc2ccc(F)cn2)c(C)n1 [Example 274] | 19 nM | 59 nM |  | 
14 | Cc1ncc(OCC2(c3ccccc3F)CC2C(=O)Nc2cccnc2)c(C)n1 (centres unmarked) [Example 276] | 76 nM | 3210 nM |  | 
15 | Cc1ncc(OCC2(c3cccc(C(F)(F)F)c3)CC2C(=O)Nc2cccnc2)c(C)n1 (centres unmarked) [Example 277] |  |  | 104 nM | 2210 nM
16 | Cc1ccc(NC(=O)[C@@H]2C[C@@]2(COc2cnc(C)nc2C)c2cccc(F)c2)nc1 [Example 278] | 10 nM | 76 nM |  | 
17 | Cc1ncc(OC[C@@]2(c3cccc(F)c3)C[C@H]2C(=O)Nc2ccc(Br)cn2)c(C)n1 [Example 279] | 3.2 nM | 24 nM |  | 

Row | SMILES | IC50 (OX2; OX2 (IC50) nM) | IC50 (OX1) | IC50 (OX2; read-out: OX2 (IC50)) | IC50 (OX1; [1])
18 | Cc1ncc(OC[C@@]2(c3cccc(F)c3)C[C@H]2C(=O)Nc2ccc(I)cn2)c(C)n1 [Example 280] | 21 nM | 24 nM |  | 
19 | Cc1ncc(OC[C@@]2(c3cccc(F)c3)C[C@H]2C(=O)Nc2ccc(CF)cn2)c(C)n1 [Example 282] | 2.4 nM | 21 nM |  | 
20 | Cc1ncc(OC[C@@]2(c3cccc(I)c3)C[C@H]2C(=O)Nc2ccc(F)cn2)c(C)n1 [Example 283, (1R,2S)-2-{[(2,4-dimethylpyrimidin-5-yl)oxy]methyl}-N-(5-fluoropyridin-2-yl)-2-(3-iodophenyl)cyclopropanecarboxamide] | 9 nM | 172 nM |  | 
21 | Cc1nc(C)[n+]([O-])cc1OC[C@@]1(c2cccc(F)c2)C[C@H]1C(=O)Nc1ccc(F)cn1 [Example 284] | 6 nM | 112 nM |  | 
22 | Cc1ncc(OC[C@@]2(c3cccc(F)c3)C[C@H]2C(=O)Nc2ccc(F)cn2)c(C)[n+]1[O-] [Example 285] | 16 nM | 77 nM |  | 
23 | Cc1ncc(OC[C@@]2(c3cccc(F)c3)C[C@H]2C(=O)Nc2ccc(F)cn2)c(CO)n1 [Example 286, (1R,2S)-2-(3-fluorophenyl)-N-(5-fluoropyridin-2-yl)-2-{[(4-hydroxymethyl-2-methylpyrimidin-5-yl)oxy]methyl}-2-(3-fluorophenyl)cyclopropanecarboxamide] | 4.5 nM | > 200 nM |  | 
24 | O=C(Nc1ccc(F)cn1)[C@@H]1C[C@@]1(COc1c[nH]c(=O)nc1C(F)(F)F)c1cc(F)cc(F)c1 [Example 291, (1R,2S)-2-(3,5-difluorophenyl)-N-(5-fluoropyridin-2-yl)-2-{[(2-oxo-4-trifluoromethyl-1,2-dihydropyrimidin-5-yl)oxy]methyl}cyclopropanecarboxamide] |  |  | 49 nM | > 200 nM
25 | Cc1ncc(CC[C@@]2(c3ccccc3)C[C@H]2C(=O)Nc2cc(C)c(F)cn2)c(C)n1 [Example 292, (1R,2R)-2-[2-(2,4-dimethylpyrimidin-5-yl)ethyl]-N-(5-fluoro-4-methylpyridin-2-yl)-2-phenylcyclopropanecarboxamide] |  |  | 34 nM | 240 nM
26 | Cc1ncc(N(C)C[C@@]2(c3cccc(F)c3)C[C@H]2C(=O)Nc2cc(C)c(F)cn2)c(C)n1 [Example 293] |  |  | 9 nM | 79 nM
27 | Cc1ncc(N(C)C[C@@]2(c3cccc(F)c3)C[C@H]2C(=O)Nc2ccc(F)cc2)c(C)n1 [Example 294] |  |  | 14 nM | > 200 nM
28 | Cc1ncc(N(C)C[C@@]2(c3cccc(F)c3)C[C@H]2C(=O)Nc2cc(C)c(Cl)cn2)c(C)n1 [Example 295, (1R,2S)-N-(5-chloro-4-methylpyridin-2-yl)-2-[N-(2,4-dimethylpyrimidin-5-yl)methylaminomethyl]-2-(3-fluorophenyl)cyclopropanecarboxamide] |  |  | 6 nM | 5 nM
29 | Cc1ncc(N(C)C[C@@]2(c3cccc(F)c3)C[C@H]2C(=O)Nc2ccc(F)c(F)c2)c(C)n1 [Example 296] |  |  | 8 nM | > 200 nM
30 | Cc1ncc(N(C)C[C@@]2(c3ccccc3)C[C@H]2C(=O)Nc2cc(C)c(F)cn2)c(C)n1 [Example 299] |  |  | 46 nM | 304 nM
31 | Cc1ncc(N(C)C[C@@]2(c3ccccc3)C[C@H]2C(=O)Nc2ccc(F)cc2)c(C)n1 [Example 300] |  |  | 34 nM | 495 nM
32 | Cc1ncc(N(C)C[C@@]2(c3ccccc3)C[C@H]2C(=O)Nc2cc(C)c(Cl)cn2)c(C)n1 [Example 301] |  |  | 28 nM | 175 nM
33 | Cc1ncc(NC[C@@]2(c3cccc(F)c3)C[C@H]2C(=O)Nc2ccc(F)cn2)c(C(F)(F)F)n1 [Example 302, (1R,2S)-2-(3-fluorophenyl)-N-(5-fluoropyridin-2-yl)-2-[N-(2-methyl-4-trifluoromethylpyrimidin-5-yl)aminomethyl]cyclopropanecarboxamide] |  |  | 3 nM | 8 nM
34 | Cc1ncc(OC[C@@]2(c3ccccc3)C[C@H]2c2nc3cc(F)ccc3[nH]2)c(C)n1 [Example 303, 2-{(1R,2S)-2-{[(2,4-dimethylpyrimidin-5-yl)oxy]methyl}-2-phenylcyclopropyl}-5-fluoro-1H-benzimidazole] |  |  | 3 nM | 75 nM
